Source: patent publication US20190343908A1, “Therapeutic Combination for the Treatment of Cancer” (Nerium Biotechnology Inc., priority 2011, published 2019)

Tests used:
[1] = tested on: A375 melanoma cancer cell line; assay: Methyl-Tetrazolium viability assay, A375; format: cell-based, human; settings: for ABSORBANCE: 0.1 μg/mL cisplatin; for Average absorbance, MTT 24 h / Average absorbance, MTT 48 h / Average absorbance, MTT 72 h: A375 Run 1
Source text: (§1) Three different viability assays were chosen to complement each other and yielded results dependent on concentration and cell line: the Methyl Tetrazolium dye assay, the Sulforhodamine B fluorescent dye assay, and the Crystal Violet dye assay.
(§2) The Methyl-Tetrazolium dye assay measures the activity of enzymes in mitochondria. The dye precursor is taken up by cells, where it undergoes reduction to the purple formazan. It measures only the mitochondrial activity and, thus, it is not always a reliable indication of whether the cells themselves are alive or dead, since even a recently dead cell has […] enzyme activity in mitochondria. Intracellular glucose concentration, pH, and time before assay all affect the measurements.
(§3) The Methyl Tetrazolium, Sulforhodamine B, and Crystal Violet assays were used to assess cell viabilities. The incubation times were 24 hours, 48 hours, and 72 hours. The Nerium oleander extract Anvirzel™ (a hot water extract of oleander obtained from Salud Integral, Honduras) was tested in concentrations ranging from 0.01 ng/mL to 10 ng/mL.
(§4) Cells were detached by trypsinization (Trypsin-0.25% EDTA, Invitrogen, 25200-072) during the logarithmic phase of culture growth and plated in 96-well plates (18.000 cells/well) (Corning, Costar 359) in a final volume of 200 μl of medium per well. […] The absorbance was measured after 24 hours, 48 hours, and 72 hours of incubation.
(§5) For the Methyl-Tetrazolium assay, the dye (Sigma, M2128; 5 mg/mL, diluted in phosphate-buffered saline) was added to each well and plates were incubated for 3 hours at 37° C. After the end of the incubation period, the medium was discarded and the cells were rinsed with phosphate-buffered saline. Finally, the formazan crystals were dissolved in dimethylsulphoxide (Sigma, D4540).
(§6) The optical density of each plate was measured on a μQuant spectrophotometer and the data were analyzed with Gen5 software (μQuant Biomolecular Spectrophotometer MQX200 and Gen5™ Microplate Data Collection & Analysis software, BioTek® Instruments. Inc, April 2008). Absorbance was measured at 570 nm for all assays and a second wavelength was measured in order to subtract noise. For the Methyl-Tetrazolium assay this second wavelength was 630 nm and for the Sulforhodamine B and Crystal Violet assays it was 690 nm.

[2] = tested on: COLO699N lung cancer cell line; assay: Methyl-Tetrazolium viability assay, COLO699N; format: cell-based, human; design: key to MTT Average: absorbance (optical density) at 570 nm, second wavelength subtracted; settings: for Average MTT 24 h / Average MTT 48 h / Average MTT 72 h: COLO699N Run 1; for ABSORBANCE: COLO699N, 0.1 μg/mL cisplatin
Source text: as §1, §2, §3, §4, §5, §6

## N.N.[Cl][Pt][Cl] [cisplatin]
[1]; A375, 48 h
  ABSORBANCE: 0.332
[1]; A375, 72 h
  ABSORBANCE: 0.479
[1]; 0.1 μg/ml CDDP
  Average absorbance, MTT 24 h: 0.34
  Average absorbance, MTT 48 h: 0.332
  Average absorbance, MTT 72 h: 0.479
[1]; 1 μg/ml CDDP
  Average absorbance, MTT 24 h: 0.068
  Average absorbance, MTT 48 h: 0.048
  Average absorbance, MTT 72 h: 0.042
[1]; 10 μg/ml CDDP
  Average absorbance, MTT 24 h: 0.066
  Average absorbance, MTT 48 h: 0.044
  Average absorbance, MTT 72 h: 0.04
[1]; 100 μg/ml CDDP
  Average absorbance, MTT 24 h: 0.049
  Average absorbance, MTT 48 h: 0.038
  Average absorbance, MTT 72 h: 0.036
[1]; A375 Run 2, 24 h, 0.1 μg/ml CDDP
  Average absorbance MTT: 0.367
[1]; A375 Run 2, 24 h, 1 μg/ml CDDP
  Average absorbance MTT: 0.047
[1]; A375 Run 2, 24 h, 10 μg/ml CDDP
  Average absorbance MTT: 0.049
[1]; A375 Run 2, 24 h, 100 μg/ml CDDP
  Average absorbance MTT: 0.031
[1]; A375 Run 2, 48 h, 0.1 μg/ml CDDP
  Average absorbance MTT: 0.598
[1]; A375 Run 2, 48 h, 1 μg/ml CDDP
  Average absorbance MTT: 0.046
[1]; A375 Run 2, 48 h, 10 μg/ml CDDP
  Average absorbance MTT: 0.045
[1]; A375 Run 2, 48 h, 100 μg/ml CDDP
  Average absorbance MTT: 0.048
[1]; A375 Run 2, 72 h, 0.1 μg/ml CDDP
  Average absorbance MTT: 0.696
[1]; A375 Run 2, 72 h, 1 μg/ml CDDP
  Average absorbance MTT: 0.049
[1]; A375 Run 2, 72 h, 10 μg/ml CDDP
  Average absorbance MTT: 0.042
[1]; A375 Run 2, 72 h, 100 μg/ml CDDP
  Average absorbance MTT: 0.038
[1]; A375 Run 3, 24 h, 0.1 μg/ml CDDP
  Average absorbance MTT: 0.25
[1]; A375 Run 3, 24 h, 1 μg/ml CDDP
  Average absorbance MTT: 0.052
[1]; A375 Run 3, 24 h, 10 μg/ml CDDP
  Average absorbance MTT: 0.054
[1]; A375 Run 3, 24 h, 100 μg/ml CDDP
  Average absorbance MTT: 0.01
[1]; A375 Run 3, 48 h, 0.1 μg/ml CDDP
  Average absorbance MTT: 0.422
[1]; A375 Run 3, 48 h, 1 μg/ml CDDP
  Average absorbance MTT: 0.041
[1]; A375 Run 3, 48 h, 10 μg/ml CDDP
  Average absorbance MTT: 0.037
[1]; A375 Run 3, 48 h, 100 μg/ml CDDP
  Average absorbance MTT: 0.036
[1]; A375 Run 3, 72 h, 0.1 μg/ml CDDP
  Average absorbance MTT: 0.413
[1]; A375 Run 3, 72 h, 1 μg/ml CDDP
  Average absorbance MTT: 0.026
[1]; A375 Run 3, 72 h, 10 μg/ml CDDP
  Average absorbance MTT: 0.033
[1]; A375 Run 3, 72 h, 100 μg/ml CDDP
  Average absorbance MTT: 0.031
[2]; 0.1 μg/ml CDDP
  Average MTT 24 h: 0.122
[2]; 0.1 μg/ml CDDP, 48 h
  Average MTT 48 h: 0.179
[2]; 0.1 μg/ml CDDP, 72 h
  Average MTT 72 h: 0.237
[2]; 1 μg/ml CDDP
  Average MTT 24 h: 0.023
[2]; 1 μg/ml CDDP, 48 h
  Average MTT 48 h: 0.016
[2]; 1 μg/ml CDDP, 72 h
  Average MTT 72 h: 0.019
[2]; 10 μg/ml CDDP
  Average MTT 24 h: 0.384
[2]; 10 μg/ml CDDP, 48 h
  Average MTT 48 h: 0.012
[2]; 10 μg/ml CDDP, 72 h
  Average MTT 72 h: 0.016
[2]; 100 μg/ml CDDP
  Average MTT 24 h: 0.033
[2]; 100 μg/ml CDDP, 48 h
  Average MTT 48 h: 0.011
[2]; 100 μg/ml CDDP, 72 h
  Average MTT 72 h: 0.014
[2]; 48 h
  ABSORBANCE: 0.636
[2]; 72 h
  ABSORBANCE: 0.73
[2]; Run 2, 24 h, 0.1 μg/ml CDDP
  MTT Average: 0.362
[2]; Run 2, 24 h, 1 μg/ml CDDP
  MTT Average: 0.055
[2]; Run 2, 24 h, 10 μg/ml CDDP
  MTT Average: 0.178
[2]; Run 2, 24 h, 100 μg/ml CDDP
  MTT Average: 0.04
[2]; Run 2, 48 h, 0.1 μg/ml CDDP
  MTT Average: 0.636
[2]; Run 2, 48 h, 1 μg/ml CDDP
  MTT Average: 0.04
[2]; Run 2, 48 h, 10 μg/ml CDDP
  MTT Average: 0.049
[2]; Run 2, 48 h, 100 μg/ml CDDP
  MTT Average: 0.018
[2]; Run 2, 72 h, 0.1 μg/ml CDDP
  MTT Average: 0.73
[2]; Run 2, 72 h, 1 μg/ml CDDP
  MTT Average: 0.044
[2]; Run 2, 72 h, 10 μg/ml CDDP
  MTT Average: 0.057
[2]; Run 2, 72 h, 100 μg/ml CDDP
  MTT Average: 0.068
[2]; Run 3, 24 h, 0.1 μg/ml CDDP
  MTT Average: 0.365
[2]; Run 3, 24 h, 1 μg/ml CDDP
  MTT Average: 0.04
[2]; Run 3, 24 h, 10 μg/ml CDDP
  MTT Average: 0.148
[2]; Run 3, 24 h, 100 μg/ml CDDP
  MTT Average: 0.041
[2]; Run 3, 48 h, 0.1 μg/ml CDDP
  MTT Average: 0.442
[2]; Run 3, 48 h, 1 μg/ml CDDP
  MTT Average: 0.063
[2]; Run 3, 48 h, 10 μg/ml CDDP
  MTT Average: 0.041
[2]; Run 3, 48 h, 100 μg/ml CDDP
  MTT Average: 0.025
[2]; Run 3, 72 h, 0.1 μg/ml CDDP
  MTT Average: 0.638
[2]; Run 3, 72 h, 1 μg/ml CDDP
  MTT Average: 0.078
[2]; Run 3, 72 h, 10 μg/ml CDDP
  MTT Average: 0.026
[2]; Run 3, 72 h, 100 μg/ml CDDP
  MTT Average: 0.027
